Measurements as given in US20220395549A1, “COMPOSITIONS OF THE OLEA EUROPAEA V. SYLVESTRIS WITH ANTIMICROBIAL EFFICACY” (TAPROGGE GMBH, priority 2019, published 2022).

Test system: S. aureus ATCC 6538
Experiment: quantitative suspension assay of mono-substances
Type: cell-based, Staphylococcus aureus
Method: A stock solution was prepared by adding 0.1 ml methanol to 10.48 mg of hydroxytyrosol. After dissolving of the compound, the solution was quantitatively transferred into 4.9 ml water for injection (WFI), effective concentration of hydroxytyrosol: 2.0 mg/ml.
Using the stock solution, five (5) concentrations of hydroxytyrosol in a geometric series of 2 mg hydroxytyrosol/ml to 0.125 mg hydroxytyrosol/ml were tested in a quantitative suspension assay.
2 ml of the stock solution and the dilutions (V1 to V4), respectively, and a methanol-solution of 2% as a positive control were inoculated with 0.1 ml of a test suspension of S. aureus ATCC 6538, adjusted to about 2.0×10^5 CFU/0.1 ml, resulting in about 100,000 CFU/ml in the individual assays.
Samples (0.1 ml) were then taken at t 0, 12, 30, and 60 minutes as well as t 24 48, and 72 hours after inoculation and culturing at between 20-25° C., and were diluted with 0.9 ml of 0.9% NaCl solution. The samples were plated on blood agar plates, and incubated up to 5 days at between 30-35° C.
A stock solution was prepared at a concentration of 2 mg/ml of oleocanthal. The compound was dissolved by in ethanol (99.8%) and WFI was added.
Using the stock solution, concentrations of oleocanthal in a geometric series of 1 mg oleocanthal/ml to 0.125 mg oleocanthal/ml were tested in a quantitative suspension assay.
2 ml of the stock solution and the dilutions (V1 to V4), respectively, and a ethanol-solution of 2.85% as a positive control were inoculated with 0.055 ml of a test suspension of S. aureus ATCC 6538, adjusted to about 3.6×10^5 CFU/0.1 ml, resulting in about 99,000 CFU/ml in the individual assays.
A stock solution was prepared at a concentration of 1 mg/ml of oleacin. The compound was dissolved by in ethanol (99.8%) and WFI was added.
Using the stock solution, concentrations of oleacin at 0.25 mg oleacin/ml and 0.125 mg oleacin/ml were tested in a quantitative suspension assay.
2 ml of the stock solution and the dilutions (V1 and V2), respectively, and a ethanol-solution of 0.44% as a positive control were inoculated with 0.055 ml of a test suspension of S. aureus ATCC 6538, adjusted to about 3.5×10^5 CFU/0.1 ml, resulting in about 99,000 CFU/ml in the individual assays.
A stock solution was prepared by adding 0.1 ml chloroform to 25 mg of uvaol. After dissolving of the compound, the solution was quantitatively transferred into 12.4 ml water for injection (WFI), effective concentration of uvaol: 2.0 mg/ml.
Using the stock solution, five (5) concentrations of uvaol in a geometric series of 2 mg uvaol/ml to 0.125 mg uvaol/ml were tested in a quantitative suspension assay.
2 ml of the stock solution and the dilutions (V1 to V4), respectively, and a chloroform-solution of 0.8% as a positive control were inoculated with 0.1 ml of a test suspension of S. aureus ATCC 6538, adjusted to about 2.0×10^5 CFU/0.1 ml, resulting in about 100,000 CFU/ml in the individual assays.
A stock solution was prepared by adding 0.1 ml chloroform to 10.45 mg of erythrodiol. After dissolving of the compound, the solution was quantitatively transferred into 4.9 ml water for injection (WFI), effective concentration of erythrodiol: 2.0 mg/ml.
2 ml of the stock solution and the dilutions (V1 to V4), respectively, and a chloroform-solution of 2% as a positive control were inoculated with 0.1 ml of a test suspension of S. aureus ATCC 6538, adjusted to about 3.6×10^5 CFU/0.1 ml, resulting in about 100.000 CFU/ml in the individual assays.

## OCCc1ccc(O)c(O)c1 [Hydroxytyrosol]
0.125 Hyd/ml, t 0 min, initial cell load 1.7 × 10^5 CFU/ml
  Number of CFUs: 7.0 × 10^4 CFU/ml
0.125 Hyd/ml, t 12 min, initial cell load 1.7 × 10^5 CFU/ml
  Number of CFUs: 7.4 × 10^4 CFU/ml
0.125 Hyd/ml, t 30 min, initial cell load 1.7 × 10^5 CFU/ml
  Number of CFUs: 7.0 × 10^4 CFU/ml
0.125 Hyd/ml, t 60 min, initial cell load 1.7 × 10^5 CFU/ml
  Number of CFUs: 6.8 × 10^4 CFU/ml
0.125 Hyd/ml, t 24 h, initial cell load 1.7 × 10^5 CFU/ml
  Number of CFUs: 2.8 × 10^3 CFU/ml
0.125 Hyd/ml, t 48 h, initial cell load 1.7 × 10^5 CFU/ml
  Number of CFUs: <100 CFU/ml
0.125 Hyd/ml, t 72 h, initial cell load 1.7 × 10^5 CFU/ml
  Number of CFUs: 7.1 × 10^2 CFU/ml
0.25 Hyd/ml, t 0 min, initial cell load 1.7 × 10^5 CFU/ml
  Number of CFUs: 5.7 × 10^4 CFU/ml
0.25 Hyd/ml, t 12 min, initial cell load 1.7 × 10^5 CFU/ml
  Number of CFUs: 5.1 × 10^4 CFU/ml
0.25 Hyd/ml, t 30 min, initial cell load 1.7 × 10^5 CFU/ml
  Number of CFUs: 5.9 × 10^4 CFU/ml
0.25 Hyd/ml, t 60 min, initial cell load 1.7 × 10^5 CFU/ml
  Number of CFUs: 7.4 × 10^4 CFU/ml
0.25 Hyd/ml, t 24 h, initial cell load 1.7 × 10^5 CFU/ml
  Number of CFUs: 1.4 × 10^3 CFU/ml
0.25 Hyd/ml, t 48 h, initial cell load 1.7 × 10^5 CFU/ml
  Number of CFUs: <100 CFU/ml
0.25 Hyd/ml, t 72 h, initial cell load 1.7 × 10^5 CFU/ml
  Number of CFUs: <100 CFU/ml
0.5 Hyd/ml, t 0 min, initial cell load 1.7 × 10^5 CFU/ml
  Number of CFUs: 7.0 × 10^4 CFU/ml
0.5 Hyd/ml, t 12 min, initial cell load 1.7 × 10^5 CFU/ml
  Number of CFUs: 6.6 × 10^4 CFU/ml
0.5 Hyd/ml, t 30 min, initial cell load 1.7 × 10^5 CFU/ml
  Number of CFUs: 6.4 × 10^4 CFU/ml
0.5 Hyd/ml, t 60 min, initial cell load 1.7 × 10^5 CFU/ml
  Number of CFUs: 6.1 × 10^4 CFU/ml
0.5 Hyd/ml, t 24 h, initial cell load 1.7 × 10^5 CFU/ml
  Number of CFUs: 2.0 × 10^2 CFU/ml
0.5 Hyd/ml, t 48 h, initial cell load 1.7 × 10^5 CFU/ml
  Number of CFUs: <100 CFU/ml
0.5 Hyd/ml, t 72 h, initial cell load 1.7 × 10^5 CFU/ml
  Number of CFUs: <100 CFU/ml
1.0 Hyd/ml, t 0 min, initial cell load 1.7 × 10^5 CFU/ml
  Number of CFUs: 6.8 × 10^4 CFU/ml
1.0 Hyd/ml, t 12 min, initial cell load 1.7 × 10^5 CFU/ml
  Number of CFUs: 7.8 × 10^4 CFU/ml
1.0 Hyd/ml, t 30 min, initial cell load 1.7 × 10^5 CFU/ml
  Number of CFUs: 7.4 × 10^4 CFU/ml
1.0 Hyd/ml, t 60 min, initial cell load 1.7 × 10^5 CFU/ml
  Number of CFUs: 7.2 × 10^4 CFU/ml
1.0 Hyd/ml, t 24 h, initial cell load 1.7 × 10^5 CFU/ml
  Number of CFUs: <100 CFU/ml
1.0 Hyd/ml, t 48 h, initial cell load 1.7 × 10^5 CFU/ml
  Number of CFUs: <100 CFU/ml
1.0 Hyd/ml, t 72 h, initial cell load 1.7 × 10^5 CFU/ml
  Number of CFUs: <100 CFU/ml
2.0 Hyd/ml, t 0 min, initial cell load 1.7 × 10^5 CFU/ml
  Number of CFUs: 7.0 × 10^4 CFU/ml
2.0 Hyd/ml, t 12 min, initial cell load 1.7 × 10^5 CFU/ml
  Number of CFUs: 8.9 × 10^4 CFU/ml
2.0 Hyd/ml, t 30 min, initial cell load 1.7 × 10^5 CFU/ml
  Number of CFUs: 5.9 × 10^4 CFU/ml
2.0 Hyd/ml, t 60 min, initial cell load 1.7 × 10^5 CFU/ml
  Number of CFUs: 5.9 × 10^4 CFU/ml
2.0 Hyd/ml, t 24 h, initial cell load 1.7 × 10^5 CFU/ml
  Number of CFUs: <100 CFU/ml
2.0 Hyd/ml, t 48 h, initial cell load 1.7 × 10^5 CFU/ml
  Number of CFUs: <100 CFU/ml
2.0 Hyd/ml, t 72 h, initial cell load 1.7 × 10^5 CFU/ml
  Number of CFUs: <100 CFU/ml

## C/C=C(/C=O)[C@@H](CC=O)CC(=O)OCCc1ccc(O)cc1 [oleocanthal]
0.125 Ole/ml, t 0 min, initial cell load 9.9 × 10^4 CFU/ml
  Number of CFUs: 2.0 × 10^4 CFU/ml
0.125 Ole/ml, t 12 min, initial cell load 9.9 × 10^4 CFU/ml
  Number of CFUs: 1.6 × 10^4 CFU/ml
0.125 Ole/ml, t 30 min, initial cell load 9.9 × 10^4 CFU/ml
  Number of CFUs: 1.6 × 10^4 CFU/ml
0.125 Ole/ml, t 60 min, initial cell load 9.9 × 10^4 CFU/ml
  Number of CFUs: 1.1 × 10^4 CFU/ml
0.125 Ole/ml, t 24 h, initial cell load 9.9 × 10^4 CFU/ml
  Number of CFUs: 5.4 × 10^3 CFU/ml
0.125 Ole/ml, t 48 h, initial cell load 9.9 × 10^4 CFU/ml
  Number of CFUs: <100 CFU/ml
0.125 Ole/ml, t 72 h, initial cell load 9.9 × 10^4 CFU/ml
  Number of CFUs: <100 CFU/ml
0.25 Ole/ml, t 0 min, initial cell load 9.9 × 10^4 CFU/ml
  Number of CFUs: 1.7 × 10^4 CFU/ml
0.25 Ole/ml, t 12 min, initial cell load 9.9 × 10^4 CFU/ml
  Number of CFUs: 1.8 × 10^4 CFU/ml
0.25 Ole/ml, t 30 min, initial cell load 9.9 × 10^4 CFU/ml
  Number of CFUs: 2.0 × 10^4 CFU/ml
0.25 Ole/ml, t 60 min, initial cell load 9.9 × 10^4 CFU/ml
  Number of CFUs: 1.6 × 10^4 CFU/ml
0.25 Ole/ml, t 24 h, initial cell load 9.9 × 10^4 CFU/ml
  Number of CFUs: 7.2 × 10^3 CFU/ml
0.25 Ole/ml, t 48 h, initial cell load 9.9 × 10^4 CFU/ml
  Number of CFUs: 8.3 × 10^3 CFU/ml
0.25 Ole/ml, t 72 h, initial cell load 9.9 × 10^4 CFU/ml
  Number of CFUs: <100 CFU/ml
0.5 Ole/ml, t 0 min, initial cell load 9.9 × 10^4 CFU/ml
  Number of CFUs: 8.3 × 10^3 CFU/ml
0.5 Ole/ml, t 12 min, initial cell load 9.9 × 10^4 CFU/ml
  Number of CFUs: 6.1 × 10^3 CFU/ml
0.5 Ole/ml, t 30 min, initial cell load 9.9 × 10^4 CFU/ml
  Number of CFUs: 5.1 × 10^3 CFU/ml
0.5 Ole/ml, t 60 min, initial cell load 9.9 × 10^4 CFU/ml
  Number of CFUs: 2.4 × 10^3 CFU/ml
0.5 Ole/ml, t 24 h, initial cell load 9.9 × 10^4 CFU/ml
  Number of CFUs: <100 CFU/ml
0.5 Ole/ml, t 48 h, initial cell load 9.9 × 10^4 CFU/ml
  Number of CFUs: <100 CFU/ml
0.5 Ole/ml, t 72 h, initial cell load 9.9 × 10^4 CFU/ml
  Number of CFUs: <100 CFU/ml
1.0 Ole/ml, t 0 min, initial cell load 9.9 × 10^4 CFU/ml
  Number of CFUs: <100 CFU/ml
1.0 Ole/ml, t 12 min, initial cell load 9.9 × 10^4 CFU/ml
  Number of CFUs: <100 CFU/ml
1.0 Ole/ml, t 30 min, initial cell load 9.9 × 10^4 CFU/ml
  Number of CFUs: <100 CFU/ml
1.0 Ole/ml, t 60 min, initial cell load 9.9 × 10^4 CFU/ml
  Number of CFUs: <100 CFU/ml
1.0 Ole/ml, t 24 h, initial cell load 9.9 × 10^4 CFU/ml
  Number of CFUs: <100 CFU/ml
1.0 Ole/ml, t 48 h, initial cell load 9.9 × 10^4 CFU/ml
  Number of CFUs: <100 CFU/ml
1.0 Ole/ml, t 72 h, initial cell load 9.9 × 10^4 CFU/ml
  Number of CFUs: <100 CFU/ml
2.0 Ole/ml, t 0 min, initial cell load 9.9 × 10^4 CFU/ml
  Number of CFUs: <100 CFU/ml
2.0 Ole/ml, t 12 min, initial cell load 9.9 × 10^4 CFU/ml
  Number of CFUs: <100 CFU/ml
2.0 Ole/ml, t 30 min, initial cell load 9.9 × 10^4 CFU/ml
  Number of CFUs: <100 CFU/ml
2.0 Ole/ml, t 60 min, initial cell load 9.9 × 10^4 CFU/ml
  Number of CFUs: <100 CFU/ml
2.0 Ole/ml, t 24 h, initial cell load 9.9 × 10^4 CFU/ml
  Number of CFUs: <100 CFU/ml
2.0 Ole/ml, t 48 h, initial cell load 9.9 × 10^4 CFU/ml
  Number of CFUs: <100 CFU/ml
2.0 Ole/ml, t 72 h, initial cell load 9.9 × 10^4 CFU/ml
  Number of CFUs: <100 CFU/ml
Detection limit of the assay 100 CFU/ml
  antimicrobial effect, summary in words: immediate effect at the higher concentrations
